# According to publication PMC4184574, “Enantioselectivity in the cytochrome P450-dependent conversion of tegafur to 5-fluorouracil in human liver microsomes” (Pharmacology Research & Perspectives, 2013):
# What was measured:
# CYP1A2 = biological target: T1, CYP1A2 (Homo sapiens, UniProt P05177); assay: 5-FU formation from FT enantiomers by cDNA-expressed CYP1A2 (kinetics, velocity, RAF contribution); type: in vitro ADME; conditions: for CYP contribution: CYP1A2, RAF method, 30 μmol/L
# T1 construct: purchased BD Gentest; host or cells: insect cells (baculovirus)
# T1 sequence (P05177 2-516 limits assumed): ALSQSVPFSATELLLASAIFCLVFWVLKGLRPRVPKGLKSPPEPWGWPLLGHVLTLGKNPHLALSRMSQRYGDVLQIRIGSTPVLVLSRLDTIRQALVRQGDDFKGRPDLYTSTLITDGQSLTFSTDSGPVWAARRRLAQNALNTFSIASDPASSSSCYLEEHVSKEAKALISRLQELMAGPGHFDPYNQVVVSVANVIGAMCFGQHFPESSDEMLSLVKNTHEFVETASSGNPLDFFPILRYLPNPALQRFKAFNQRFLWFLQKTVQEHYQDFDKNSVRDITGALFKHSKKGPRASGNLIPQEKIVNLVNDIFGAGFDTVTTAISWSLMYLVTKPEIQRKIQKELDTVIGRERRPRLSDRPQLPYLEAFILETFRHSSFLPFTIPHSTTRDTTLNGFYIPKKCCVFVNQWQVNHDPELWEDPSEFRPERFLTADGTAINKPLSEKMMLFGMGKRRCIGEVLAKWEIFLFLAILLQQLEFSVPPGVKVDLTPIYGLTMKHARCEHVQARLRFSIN
# Procedure: (§1) (pooled preparations from 20 donors; Kansas City, KS). […] Insect microsomes expressing only NADPH-P450 oxidoreductase and cytochrome b5 were also used as control. These enzymes were stored at −80°C until use.
# 5-FU formed from FT was subjected to extensive metabolism by dihydropyrimidine dehydrogenase (DPD) contaminating human hepatic preparations. Therefore, a potent DPD inhibitor, CDHP, was always added to avoid the unexpected loss of 5-FU (Ikeda et al. [2000]; Yamamiya et al. [2010]). Incubation mixture for hepatic microsomal metabolism contained FT, microsomes (1 mg protein/mL), 0.1 mmol/L CDHP, and an NADPH-generating system consisting of 1.3 mmol/L β-NADP^+, 3.3 mmol/L glucose-6-phosphate, 3.3 mmol/L magnesium chloride, and 0.4 units glucose-6-phosphate dehydrogenase in 100 mmol/L Tris (pH 7.4). Metabolic reaction by S9 and cytosol (each 2 mg protein/mL) was carried out in 100 mmol/L phosphate (pH 7.4) because TPase requires phosphate ions for catalyzing the reaction. In some cases, insect microsomes expressing recombinant CYP isoforms (20 pmol/mL) were added to the incubation mixtures in either 50, 100 mmol/L phosphate (pH 7.4) or 100 mmol/L Tris (pH 7.4), depending on supplier's recommendation. […] The reaction for the assay of FT metabolism was initiated by adding the substrate, following preincubation for 5 min at 37°C. […] The incubation times of microsomes, cytosol, and S9 were 15, 15, and 30 min, respectively. After centrifugation, the supernatant was collected and stored at −80°C until the determination of 5-FU. Because a small portion of FT is nonenzymatically converted to 5-FU, the content of 5-FU spontaneously formed was subtracted from total yield obtained after incubation to correct the activity. The spontaneous degradation of FT to 5-FU was evaluated using enzymes inactivated by heating them at 100°C for 5 min.
# Concentration of 5-FU was determined using a LC/MS/MS system. […] The mobile phase consisted of 10 mmol/L ammonium acetate/acetonitrile 10:90 (v/v). The MS/MS analysis was performed in negative ionization mode under multiple reaction monitoring (MRM) mode, using mass transitions, m/z 128.6/41.8 for 5-FU and m/z 130.6/42.8 for ^15N2-5-FU, an internal standard (IS). […] For quantification of 5-FU, the calibration curves were linear over the range 2–1000 ng/mL.
# In determining kinetic parameters, FT concentration ranged from 0.03 to 10 mmol/L. All reactions were performed in a linear range of 5-FU formation with respect to protein or CYP concentrations and incubation time. Eadie–Hofstee plot analysis was used to characterize enzyme kinetics in which kinetic parameters were estimated by fitting the data to the following equations (1) or (2): [drawing 1] (1) [drawing 2] (2) where V is 5-FU formation rate, S is FT concentration in the incubation mixture, Km1 and Km2 are affinity constants for high- and low-affinity components, respectively, and Vmax1 and Vmax2 are maximum velocities for high- and low-affinity components, respectively.
# The contribution of CYPn to the metabolism of R- and S-FT at their concentration of 30 μmol/L was subsequently calculated using equation (4). [drawing 4] (4) VCYPn = 5-FU formation rate in cDNA-expressed CYPn.
# [1] = design: method as in Damle et al. [2001]; conditions: ref Damle et al. [2001], cited from earlier work; for maximum concentration (Cmax) / Cmax: cancer patients after oral administration of UFT; for Cmax: read-out: maximum concentration (Cmax); for area under the plasma concentration–time curve / plasma elimination half-life: cancer patients orally given FT
# [2] = 5-FU formation from FT enantiomers in pooled human hepatic cytosol; type: in vitro ADME
# Procedure: as §1
# 5-FU formed from FT was subjected to extensive metabolism by dihydropyrimidine dehydrogenase (DPD) contaminating human hepatic preparations. Therefore, a potent DPD inhibitor, CDHP, was always added to avoid the unexpected loss of 5-FU (Ikeda et al. [2000]; Yamamiya et al. [2010]). Incubation mixture for hepatic microsomal metabolism contained FT, microsomes (1 mg protein/mL), 0.1 mmol/L CDHP, and an NADPH-generating system consisting of 1.3 mmol/L β-NADP^+, 3.3 mmol/L glucose-6-phosphate, 3.3 mmol/L magnesium chloride, and 0.4 units glucose-6-phosphate dehydrogenase in 100 mmol/L Tris (pH 7.4). Metabolic reaction by S9 and cytosol (each 2 mg protein/mL) was carried out in 100 mmol/L phosphate (pH 7.4) because TPase requires phosphate ions for catalyzing the reaction. […] The spontaneous degradation of FT to 5-FU was evaluated using enzymes inactivated by heating them at 100°C for 5 min.
# Concentration of 5-FU was determined using a LC/MS/MS system. […] For quantification of 5-FU, the calibration curves were linear over the range 2–1000 ng/mL. […]
Structure (SMILES),CYP contribution (CYP1A2) [%],Km (CYP1A2; cDNA-expressed CYP1A2) [mM],maximum concentration (Cmax) [1] [ng/mL],Cmax [1] [µM],area under the plasma concentration–time curve [1],plasma elimination half-life [1] [h],CLint (CYP1A2; cDNA-expressed CYP1A2) [nL min^−1 pmol^−1 CYP],Vmax (CYP1A2; cDNA-expressed CYP1A2) [pmol min^−1 pmol^−1 CYP],Vmax [2] [pmol/min/mg],Km ([2]; read-out: apparent Km) [mM]
O=c1[nH]c(=O)n([C@@H]2CCCO2)cc1F [S-FT],4.4,> 10,3788,18.9,"49,300 ng h/mL",10.3,–,–,–,–
O=c1[nH]c(=O)n([C@H]2CCCO2)cc1F [R-FT],7.5,1.1 ± 0.1,2957,14.8,"10,800 ng h/mL",2.4,4.9,5.6 ± 0.3,761,26
